One data set deals with BALB/c mice. Nature of the data set: Murine social interaction test. To be noted: male BALB/c mice, i.p., 10 min test 30 min after injection. Format: in vivo, Mus musculus. The procedure:
Example Testing Effect of WJ0679 on Murine Social Interaction (N=46)
Age: 6-7 weeks at testing
Vehicle: 88% isotonic saline, 10% DMSO, 2% tween 80
Route of administration: intraperitoneal (i.p.) injection
Mice were placed in the arena (40×40×40 cm) in weight and treatment matched pairs of unfamiliar mice for a 10 min test session, commencing 30 min after receiving their i.p. injection. The variables of interest were the time the mice spent in close physical contact with each other and the time each mouse spent engaged in active social investigation (sniffing the other mouse).

The target in data set [1] is T1, oxytocin receptor (OXTR), hOTR (Homo sapiens, UniProt P30559).
T1 construct: expressed in transfected cells
T1 sequence (P30559 1-389): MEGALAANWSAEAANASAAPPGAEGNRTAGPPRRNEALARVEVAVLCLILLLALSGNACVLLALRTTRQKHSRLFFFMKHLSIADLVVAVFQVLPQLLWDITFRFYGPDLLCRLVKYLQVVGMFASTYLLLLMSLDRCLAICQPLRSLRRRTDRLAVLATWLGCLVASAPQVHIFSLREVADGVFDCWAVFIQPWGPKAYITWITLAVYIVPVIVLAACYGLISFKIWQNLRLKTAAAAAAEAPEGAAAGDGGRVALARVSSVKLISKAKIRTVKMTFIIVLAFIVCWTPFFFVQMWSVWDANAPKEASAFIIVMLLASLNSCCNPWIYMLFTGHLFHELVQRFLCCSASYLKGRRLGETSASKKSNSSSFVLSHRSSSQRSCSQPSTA
Put plainly: IP1 accumulation assay, OTR-expressing HEK-293 cells (agonist and antagonist assessment). To be noted: for Emax: HEK293, read-out: OXTR Emax (% OXT); for EC50 (OXTR agonist potency, mean ± s.d.) / EC50: agonist assessment; for EC50 (OXTR agonist potency, mean ± s.d.) / IC50: IP1; for EC50: IP1, 1 h; for OV function: ratio of OXTR functional potency to V1aR functional potency, 'OT only' = function at OXTR only; for IC50: antagonist assessment vs OT 30 nM (~EC70). Type of data set: cell-based. The gist of the method: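 Flp-In T-REx HEK-293 cells stably expressing untagged hOTR were induced with tetracycline for 48 h, then exposed 1 h to compound (1 nM-100 μM) alone (agonist mode) or with 30 nM OT (~EC70; antagonist mode). IP1 was measured by HTRF, expressed as % of OT-plus-vehicle and fitted to a 4-parameter logistic curve; n≥3 experiments in duplicate.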

In data set [2] the target is T1, oxytocin receptor (OXTR), hOTR. Nature of the data set: Competition radioligand binding, [3H]-oxytocin, OTR-expressing HEK293 membranes. To be noted: [3H]-oxytocin 10 nM, 90 min 4 °C.
For data set [3], the target named is T2, vasopressin 1a receptor (V1aR) (Homo sapiens, UniProt P37288).
T2 construct: expressed in transfected cells
Nature of the data set: IP1 accumulation assay, V1aR-expressing HEK-293 cells (agonist and antagonist assessment). Type of data set: cell-based. Conditions: for EC50: agonist assessment, IP1, 1 h; for IC50: antagonist assessment vs AVP 25 nM (~EC70), IP1.

The target of data set [4] is T2, vasopressin 1a receptor (V1aR). Nature of the data set: Competition radioligand binding, [3H]-vasopressin, V1aR-expressing HEK293 membranes. Conditions: [3H]-vasopressin 2 nM, 90 min 4 °C.

The source of these data is patent US11491165B2 (Kinoxis Therapeutics Pty Ltd, priority 2016, dated 2022).

The Emax is the greatest response seen or fitted, relative to the assay's reference. Broadly, the EC50 is the concentration needed to bring the measured effect to its halfway point. As a reminder, the melting point is the temperature, or range, at which the solid turns liquid. The Ki is the equilibrium dissociation constant of an inhibitor or competing ligand from its target. Low readings indicate a stronger hold on the target, high ones a looser hold on the target. For orientation: IC50 means the midpoint of a concentration-inhibition curve. A lower IC50 goes with greater potency.

SMILES strings stand for the structures. Bounds are passed on as bounds.

T2 sequence (P37288 whole entry): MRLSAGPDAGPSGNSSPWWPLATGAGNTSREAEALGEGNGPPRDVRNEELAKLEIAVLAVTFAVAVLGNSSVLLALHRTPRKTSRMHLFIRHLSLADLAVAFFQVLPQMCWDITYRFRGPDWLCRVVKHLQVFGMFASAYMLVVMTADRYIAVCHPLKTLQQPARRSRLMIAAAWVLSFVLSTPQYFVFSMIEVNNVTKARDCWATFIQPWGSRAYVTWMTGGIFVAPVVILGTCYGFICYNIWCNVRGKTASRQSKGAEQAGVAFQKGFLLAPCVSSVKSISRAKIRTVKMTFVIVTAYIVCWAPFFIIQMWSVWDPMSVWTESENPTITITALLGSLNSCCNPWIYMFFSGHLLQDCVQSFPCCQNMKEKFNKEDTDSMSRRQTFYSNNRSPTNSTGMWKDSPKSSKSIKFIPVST

In the case of `Cn1ncc2c1Nc1ccccc1N(C(=O)c1cccc(F)c1)C2` [WJ0679, (3-Fluorophenyl)(1-methyl-4,10-dihydrobenzo[b]pyrazolo[3,4-e][1,4]diazepin-5 (1H)-yl)methanone], the melting point is 286 to 288 °C (dec.). Moreover, the “time spent in close physical contact (huddling time)” value in the data set with BALB/c mice (all doses (1, 5, 20 mg/kg), most pronounced at 1 and 5 mg/kg, FIG. 1) is “significantly increased”. Also, the “active social investigation time” value with BALB/c mice (doses of 1 and 20 mg/kg, FIG. 2) was “significantly increased”. In addition, in data set [1], the maximal response (Emax) amounted to 12.6%; the “EC50 (OXTR agonist potency, mean ± s.d.)” value was 0.316 ± 0.108 µM; the concentration for a half-maximal effect (EC50) amounted to 0.406 ± 0.074 µM; the OV function came out at 0.18. The compound further registered a Ki in data set [2] of 0.422 ± 0.129 µM. In data set [3], the concentration for a half-maximal effect (EC50) was over 10 µM and the IC50 was 2.2 ± 0.511 µM. In addition, affinity in data set [4] was put at a Ki of 0.105 ± 0.0105 µM.

For the compound `Cn1ncc2c1Nc1ccccc1N(C(=O)c1ccccc1)C2` [WJ0685, (1-Methyl-4,10-dihydrobenzo[b]pyrazolo[3,4-e][1,4]diazepin-5 (1H)-yl)(phenyl)methanone], the melting point was over 300 °C. For the same compound, in data set [1], the maximal effect (Emax) came to 11.9%; the “EC50 (OXTR agonist potency, mean ± s.d.)” value is 0.2977 ± 0.0713 µM; a half-maximal effect (EC50) was put at 0.847 ± 0.244 µM. Besides, in data set [2], the inhibition constant Ki was over 10 µM. In data set [3], this compound showed an EC50 of over 10 µM and an IC50 of over 10 µM. The affinity in data set [4] corresponds to a Ki of 0.0816 ± 0.0126 µM.

`Cn1ncc2c1Nc1ccccc1N(C(=O)C13CC4CC(CC(C4)C1)C3)C2` [WJ0687, ((3r,5r,7r)-Adamantan-1-yl)(1-methyl-4,10-dihydrobenzo[b]pyrazolo[3,4-e][1,4]diazepin-5 (1H)-yl)methanone] came in with a melting point of 283 to 285 °C. Also, in data set [1], the Emax turned out to be 33.3%; the “EC50 (OXTR agonist potency, mean ± s.d.)” value turned out to be 0.834 ± 0.0611 µM; the 50% effective concentration (EC50) was 4.88 ± 0.141 µM. Also, in data set [2], the Ki is over 10 µM. Besides, in data set [3], the concentration for a half-maximal effect (EC50) was over 10 µM and the IC50 was over 10 µM. Besides, in data set [4], the Ki is 0.377 ± 0.106 µM.

As to `Cn1ncc2c1Nc1ccccc1N(C(=O)c1cccnc1)C2` [WJ0753, (1-Methyl-4,10-dihydrobenzo[b]pyrazolo[3,4-e][1,4]diazepin-5 (1H)-yl)(pyridin-3-yl)methanone], the melting point is 247 to 249 °C (dec.). Moreover, in data set [1], the Emax is 9.67%; the “EC50 (OXTR agonist potency, mean ± s.d.)” value was found to be 0.2421 ± 0.0217 µM; the concentration for a half-maximal effect (EC50) came out at 3.53 ± 0.634 µM; the half-maximal inhibitory concentration (IC50) was over 10 µM. In data set [2], the inhibition constant (Ki) was over 10 µM. Besides, in data set [3], the EC50 is over 10 µM and the half-maximal inhibitory concentration (IC50) is over 10 µM. Moreover, the affinity in data set [4] corresponds to a Ki of 0.353 µM.

Take `Cn1ncc2c1Nc1ccccc1N(C(=O)c1ccc(Cl)cc1)C2` [WJ0755, (4-Chlorophenyl)(1-methyl-4,10-dihydrobenzo[b]pyrazolo[3,4-e][1,4]diazepin-5 (1H)-yl)methanone]: the melting point was in the range of 243 to 246 °C. For the same compound, in data set [1], the Emax came out at 10.2%; the “EC50 (OXTR agonist potency, mean ± s.d.)” value came to 0.255 ± 0.0597 µM; the half-maximal effective concentration (EC50) was 0.152 ± 0.0473 µM; the OV function is 0.09. In addition, in data set [2], the Ki came to 0.519 ± 0.11 µM. In data set [3], the half-maximal effective concentration (EC50) is over 10 µM and the IC50 worked out at 1.67 ± 0.299 µM. Besides, in data set [4], the Ki is 0.174 ± 0.0574 µM.

With `Cn1ncc2c1Nc1ccccc1N(C(=O)c1ccncc1)C2` [WJ0757, (1-Methyl-4,10-dihydrobenzo[b]pyrazolo[3,4-e][1,4]diazepin-5 (1H)-yl)(pyridin-4-yl)methanone], the melting point is 267 to 269 °C (dec.). In data set [1], this compound came in with an EC50 of over 10 µM and an IC50 of over 10 µM. The compound also yielded a Ki in data set [2] of over 10 µM. In data set [3], this compound registered an EC50 of over 10 µM and an IC50 of over 10 µM. In data set [4], this compound came in with a Ki of 0.751 ± 0.197 µM.

For `Cn1ncc2c1Nc1ccccc1N(C(=O)c1ccccn1)C2` [WJ0759, (1-Methyl-4,10-dihydrobenzo[b]pyrazolo[3,4-e][1,4]diazepin-5 (1H)-yl)(pyridin-2-yl)methanone], the melting point was 269 to 271 °C (dec.). In addition, in data set [1], the concentration for a half-maximal effect (EC50) is over 10 µM and the 50% inhibitory concentration (IC50) was over 10 µM. In addition, the Ki in data set [2] was over 10 µM. In data set [3], this compound returned a concentration for a half-maximal effect (EC50) of over 10 µM and an IC50 of over 10 µM. This compound also had a Ki in data set [4] of 1.12 ± 0.26 µM.

With `Cn1ncc2c1Nc1ccccc1N(C(=O)C13CC4CC(F)(CC(F)(C4)C1)C3)C2` [WJ0807dF, ((1r,3R,5S,7r)-3,5-Difluoroadamantan-1-yl)(1-methyl-4,10-dihydrobenzo[b]pyrazolo[3,4-e][1,4]diazepin-5 (1H)-yl)methanone], the melting point is 262 to 264 °C (dec.). For the same compound, in data set [1], the Emax came to 26.7%; the “EC50 (OXTR agonist potency, mean ± s.d.)” value was determined as 0.6677 µM; the half-maximal effective concentration (EC50) was found to be 4.15 ± 1.34 µM. In data set [2], the Ki is over 10 µM. Also, in data set [3], the concentration for a half-maximal effect (EC50) was over 10 µM and the IC50 was over 10 µM. The same compound had a Ki in data set [4] of 2.21 µM.

With `Cn1ncc2c1Nc1ccccc1N(C(=O)C13CC4CC(CC(F)(C4)C1)C3)C2` [WJ0807mF, ((1r,3s,5R,7S)-3-Fluoroadamantan-1-yl)(1-methyl-4,10-dihydrobenzo[b]pyrazolo[3,4-e][1,4]diazepin-5 (1H)-yl)methanone], the melting point was 266 to 268 °C (dec.). For the same compound, in data set [1], the Emax worked out at 25.3%; the “EC50 (OXTR agonist potency, mean ± s.d.)” value worked out at 0.6325 ± 0.148 µM; the response was half-maximal at 2.4 ± 0.652 µM (EC50). This compound displayed a Ki in data set [2] of over 10 µM. Also, in data set [3], the EC50 is over 10 µM and the IC50 was over 10 µM. For the same compound, affinity in data set [4] was put at a Ki of 1.09 ± 0.0583 µM.

Consider `Cc1ccc(C(=O)N2Cc3cnn(C)c3Nc3ccccc32)cc1C` [WJ5103, (3,4-Dimethylphenyl)(1-methyl-4,10-dihydrobenzo[b]pyrazolo[3,4-e][1,4]diazepin-5 (1H)-yl)methanone], for which the melting point is 254 to 256 °C (dec.). In data set [1], the Emax amounted to 5.87%; the “EC50 (OXTR agonist potency, mean ± s.d.)” value was 0.147 ± 0.0643 µM; the EC50 came to 0.109 ± 0.0177 µM; the OV function came out at 0.37. The affinity in data set [2] corresponds to a Ki of 0.117 ± 0.0124 µM. Moreover, in data set [3], the EC50 is over 10 µM and the IC50 is 0.346 ± 0.0909 µM. In addition, in data set [4], the affinity corresponds to a Ki of 0.014 ± 0.002 µM.

For `Cc1ccc(CN2Cc3cnn(C)c3Nc3ccccc32)cc1C` [WJ05105, 5-(3,4-Dimethylbenzyl)-1-methyl-1,4,5,10-tetrahydrobenzo[b]pyrazolo[3,4-e][1,4]diazepine], the melting point lay in the range of 171 to 173 °C. Further, in data set [1], the concentration for a half-maximal effect (EC50) was over 10 µM and the IC50 was over 10 µM. In data set [2], this compound gave a Ki of over 10 µM. In data set [3], the 50% effective concentration (EC50) was over 10 µM and the concentration for half-maximal inhibition (IC50) is over 10 µM. For the same compound, the Ki in data set [4] was over 10 µM.

The compound `Cc1ccc2c(c1)N(C(=O)c1ccccc1)Cc1cnn(C)c1N2` [WJ07117Me, (1,7-Dimethyl-4,10-dihydrobenzo[b]pyrazolo[3,4-e][1,4]diazepin-5 (1H)-yl)(phenyl)methanone] yielded a melting point of 235 to 238 °C. In data set [1], the EC50 is over 10 µM and the IC50 was over 10 µM. The inhibition constant Ki in data set [2] was found to be 4.07 ± 1.22 µM. In data set [3], this compound had an EC50 of over 10 µM and a concentration for half-maximal inhibition (IC50) of over 10 µM. The same compound had an inhibition constant Ki in data set [4] of 0.924 µM.

Compound `COc1ccc2c(c1)N(C(=O)c1ccccc1)Cc1cnn(C)c1N2` [WJ07117MeO, (7-Methoxy-1-methyl-4,10-dihydrobenzo[b]pyrazolo[3,4-e][1,4]diazepin-5 (1H)-yl)(phenyl)methanone] showed a melting point of 248 to 250 °C. In data set [1], the EC50 is over 10 µM and the IC50 is over 10 µM. The compound further gave a Ki in data set [2] of over 10 µM. Besides, in data set [3], the half-maximal effective concentration (EC50) was over 10 µM and the IC50 is over 10 µM. The compound also came in with a Ki in data set [4] of 0.374 µM.
